# Assay results from patent US7629308B2, “Methods relating to muscle selective calcineurin interacting protein (MCIP)” (Board of Regents, The University of Texas System, priority 2000, dated 2009).
# Several values for one entry are separate records, joined by “and”; a condition that tells them apart may be missing. Equal entries are not always repeated.
# Experiments:
# MCIP1 mRNA [1] = experiment: Northern blot of MCIP1 mRNA in mouse heart and soleus; type: in vivo
# Procedure: (§1) Animal experiments: Lines of transgenic mice in which the cc myosin heavy chain promoter is used to drive expression of a constitutively active form of calcineurin selectively in the heart were generated and described previously (Molkentin et al., 1998). Wildtype male C57B1/6 mice were injected intraperitoneally with 3, 5, 3′-triiodothyromine (T3) ([…]) or an equal volume of 0.9% saline once a day for ten days (Robbins & Swain, 1992). All experiments involving animals were conducted using IACRAC-approved protocols.
# (§2) RNA isolation and Northern blot analysis: Total RNA was prepared from mouse tissues or C2C12 cells using Tripure (Boehringer Mannheim, Inc.) following the manufacturer's protocol. Northern blot analysis was performed with […] of total RNA in each lane and probed in Ultrahyb (Ambion) with complementary sequences representing the 3′ UTR of MCIP1 (common to all known splicing variants), exon 1 of MCIP1, exon 4 of MCIP1, or ORF segments of MCIP2 or GAPDH cDNA. Probes were generated by PCR and labeled as described previously (Rothermel et al., 2000). Signals from Northern blots were detected on a Storm PhosphorImager (Molecular Dynamics) and quantified using ImageQuant (version 1.2).
# MCIP2 mRNA [2] = experiment: Northern blot of MCIP2 mRNA in mouse heart and soleus; type: in vivo
# Procedure: as §1, §2
# cardiac hypertrophy [3] = experiment: Hyperthyroid cardiac hypertrophy induced by T3 injection; type: in vivo, mouse; conditions: ten days i.p.; n=4
# Procedure: as §1
# calcineurin A = molecular target: T1, calcineurin A (Mus musculus, UniProt P63328); experiment: In vitro protein-protein interaction assay (GST pull-down); type: binding
# T1 construct: calcineurin A (amino acids 1-398) was translated in rabbit reticulocyte lysates; made in house; host or cells: calcineurin A: rabbit reticulocyte lysate (TNT coupled transcription/translation, Promega); GST-MCIP1: bacteria (pGEX-CS)
# Procedure: In Vitro Protein-Protein Interaction Assays—GST and GST-MCIP1 fusion proteins were prepared as described previously (Grayson et al., 1998). [^35S]Methionine labeled CnA398, CnA342, and CnA266 were produced in the TNT coupled in vitro transcription/translation system (Promega). For in vitro binding assays, equivalent amounts of GST fusion proteins bound to glutathione were resuspended in 500 μl of binding buffer (20 mM Tris, pH 7.5, 100 mM KCl, 0.1 mM EDTA, 0.05% Nonidet P-40, 10% glycerol, and 1 mg/ml bovine serum albumin). [^35S]Methionine-labeled CnA proteins were added to the resuspended GST fusion proteins and incubated for 1 h. The beads were then spun down and washed three times in binding buffer. An equal volume of 2×SDS-PAGE loading buffer was added, and the suspension was boiled for 3 min. The bound proteins were then resolved on SDS-PAGE and visualized by autoradiography. ^35S-Labeled luciferase protein (Promega) was used as a negative control. For estimation of binding efficiency, 25% of the radiolabeled protein was loaded as an input control.
# [4] = tested on: constitutively active form of NFATc; experiment: IL-2-luc reporter driven by constitutively active NFAT in C2C12 cells; type: cell-based, mouse
# From the text: (§3) GST-MCIP1 fusions were expressed from the bacterial expression plasmid pGEX-CS (T. D. Parks, et al. 1994). Luciferase reporter plasmids, Mb-luc and IL-2-luc, were constructed in pGL3 (Promega) by inserting promoter/enhancer regions from genes encoding human myoglobin (Chin et al., 1998) or IL-2 (Clipstone et al., 1992), respectively. In addition, a synthetic enhancer consisting of three copies of a high affinity MEF2 binding sequence from the desmin promoter (Naya et al., 2000) was linked to a minimal promoter (hsp68) and inserted into pGL3 yielding the des-MEF-luc reporter. The β-galactosidase reporter plasmid pCMV-lacZ (J. Grayson, et al. 1998), and expression vectors encoding constitutively active forms of NFAT (Molkentin et al., 1998), calcineurin (CnA*) (Chin et al., 1998, O'Keefe et al., 1992), or calmodulin dependent protein kinase type IV (CaMKIV) (Ho et al., 1996), were previously described. The identity of plasmid constructions was confirmed by restriction mapping and partial DNA sequencing.
# (§4) Myoblasts were harvested 24 h after transfection.
# calcineurin = experiment: Luciferase reporter assays of calcineurin-dependent transcription in C2C12 cells; type: cell-based, mouse
# From the text: as §3, §4
# Cell culture studies: C2C12 myoblasts were maintained and transfected as previously described (Rothermel et al., 2000). Luciferase assays of whole cell extracts were performed as previously described (Rothermel et al., 2000). All results were corrected for variations in transfection efficiency by normalization to expression of a cotransfected pCMV-LacZ plasmid.
# cardiac hypertrophy [5] = experiment: Cardiac hypertrophy after isoproterenol infusion or wheel running exercise; type: in vivo, mouse
# Procedure: Intact animal studies: In addition to the genetic cross to α-MHC-CnA* animals, α-MHC-hMCIP1 transgenic mice and wild-type littermates were subjected to two independent stimuli known to provoke cardiac hypertrophy. Twelve-week old and 28-week old male mice were surgically implanted with a subcutaneous mini-osmotic pump (Alzet model 2001) that released isoproterenol in 0.9% NaCl at a rate of 28 mg per hour per […] of body weight over a seven day period. Control pumps delivered a 0.9% NaCl solution. Hearts were harvested on day eight. The heart body weight ratio (htw/bw) of isoproterenol-treated, animals were compared to the mean htw/bw ratio of age matched saline-treated animals of the same genotype. For exercise-induced hypertrophy, 28-week old male animals were placed in individual cages where they had free access to a running wheel. The number of revolutions was monitored continuously for 28 days. The animals ran an average of 3 to 5 kilometers a day. The heart body weight ratios (htw/bw) of the exercised animals were compared to the mean htw/bw ratios of age-matched sedentary animals of the same genotype. A Wilcoxon rank sum test was used to determine statistically significant differences among treatment groups (p<0.05). All animal protocols were reviewed and approved by the appropriate institutional review boards.
# Gal4-VP16 = conditions: C2C12 cells
# Procedure: Tissue Culture, Cell Transfection, and Reporter Gene Assays—C2C12 myoblasts were grown in Dulbecco's modified Eagle's medium supplemented with 20% fetal bovine serum and antibiotics (100 units of penicillin and 100 g of streptomycin/ml). Myotube formation was induced by switching confluent cells to differentiation media (Dulbecco's modified Eagle's medium supplemented with 2% heat-inactivated horse serum) for 48-72 h. For transient transfection assays, C2C12 cells were plated 12 h before transfection in 12-well tissue culture dishes at 5×10^4 cells/well, and transfected with a total of 0.5 μg of plasmid DNA using LipofectAMINE Plus (Life Technologies, Inc.). Myoblasts were harvested 24 h after transfection. Myotubes were obtained by shifting cultures to differentiation media 24 h after transfection and harvesting 48 h later. To stimulate transfected cells, 1 μM ionomycin and 10 ng/ml phorbol myristate acetate (PMA) were added 4.5 h prior to harvesting. Luciferase assays of whole cell extracts were conducted as described previously (Yang et al., 1997).
# MCIP2 mRNA [6] = experiment: Northern blot of MCIP2 mRNA in C2C12 cells; type: cell-based, mouse
# Procedure: (§5) Tissue culture, cell transfection or infection, reporter gene assays: C2C12 myoblasts and myotubes were cultured as previously described (Grayson et al, 1995). Ionomycin ([…]) and cyclosporin A (50 to 200 nM) were added 4 hrs prior to harvesting the cells. When included, cyclohexamide (25 mM) was added 15 min prior to ionomycin. Transient transfection with plasmids or infection with recombinant, replication-defective adenoviruses, and luciferase assays were performed as previously reported (Chin et al, 1998; Rothermel et al., 2000; Wu et al., 1973).
# as §2
# MCIP1 mRNA [7] = experiment: Northern blot of MCIP1 mRNA in C2C12 cells; type: cell-based, mouse
# Procedure: as §5, §2
# [8] = Heart, i.p. once a day for ten days
# [9] = Soleus, pooled muscles from two animals
# [10] = C2C12, single culture dish, normalized to GAPDH mRNA
compound,measurement,setting,value
"N[C@@H](Cc1cc(I)c(Oc2ccc(O)c(I)c2)c(I)c1)C(=O)O [T3, 3,5, 3′-triiodothyromine]","MC1P1 (fold change in mRNA), Response to Thyroid Hormone",MCIP1 mRNA [1]; [8],1.05 fold and 0.87 fold and 1.08 fold
same,"MC1P1 (fold change in mRNA), Response to Thyroid Hormone",MCIP1 mRNA [1]; [9],0.78 fold and 1.05 fold and 1.24 fold
same,"T3 Effect, MC1P1 (aggregate fold change, mean ±SE)",MCIP1 mRNA [1]; heart and soleus,1.01 ± 0.06 fold
same,expression of MCIP1 in hyperthyroid hearts,"MCIP1 mRNA [1]; heart, ten days",unaltered
same,"MC1P2 (fold change in mRNA), Response to Thyroid Hormone",MCIP2 mRNA [2]; [8],1.59 fold and 1.81 fold and 1.71 fold
same,"MC1P2 (fold change in mRNA), Response to Thyroid Hormone",MCIP2 mRNA [2]; [9],1.72 fold and 2.21 fold and 1.62 fold
same,increase of MCIP2 transcript levels,MCIP2 mRNA [2]; both heart and soleus skeletal muscles,approximately 2 fold
same,"T3 Effect, MC1P2 (aggregate fold change, mean ±SE)",MCIP2 mRNA [2]; heart and soleus,1.78 ± 0.01 fold
same,mean heart weight,cardiac hypertrophy [3],180 mg
same,mean heart weight/body weight ratio,cardiac hypertrophy [3],7.2 mg/gm
"MCIP1: myocyte-enriched calcineurin interacting protein 1, product of human gene DSCR1; expressed from transfected plasmid or transgene",binding to CnA(342),calcineurin A; lacks calmodulin and calcineurin B binding regions,did not disrupt the interaction
same,binding to CnA(266),calcineurin A; lacks carboxyl-terminal half of the catalytic domain,no longer capable of binding
same,effect on transcriptional activation mediated by NFAT (IL-2-luc),[4],does not inhibit
same,effect on activation of the des-MEF2-luc reporter by CnA* alone or CnA* with CaMKIV,calcineurin; C2C12 cells,inhibited
same,effect on calcineurin response of the MCIP1 (−874 to +30)-luciferase reporter,"calcineurin; C2C12 cells, not shown",represses this response
same,effect on activation of IL-2 and Mb enhancer constructs by CnA*,calcineurin; C2C12 myoblasts and myotubes,abolished
same,inhibition of calcineurin induction of the IL-2-Luc reporter gene,"calcineurin; C2C12 myoblasts, pCMV-CnA*",almost completely inhibit
same,effect alone on activity of reporter constructs,"calcineurin; TATA-luc, IL-2-luc, Mb-luc, no CnA*",no effect
same,effect on PMA/ionophore activation of the myoglobin enhancer (Mb-luc),"calcineurin; endogenous calcineurin, C2C12 myoblasts and myotubes",inhibited
same,percent increase in heart weight to body weight ratio,"cardiac hypertrophy [5]; α-MHC-hMCIP1 transgenic mice, isoproterenol over seven days",9.4±0.87%
same,effect on Gal4-VP16 induction of UASg-TATA-luc,Gal4-VP16,not affected
CC(C)NCC(O)c1ccc(O)c(O)c1 (stereo not shown) [isoproterenol],percent increase in heart weight to body weight ratio,"cardiac hypertrophy [5]; male wild-type mice, isoproterenol by osmotic minipump over seven days",22.8±1.95%
"C[C@H](CCC(=O)O)C[C@H](C)C[C@H](C)C(=O)/C=C(\O)[C@H](C)C[C@H](C)C/C=C/[C@@H](C)[C@@H](O)[C@@H](C)[C@@H](O)C[C@@H]1CC[C@@](C)([C@H]2CC[C@@](C)([C@@H](C)O)O2)O1 [Ionomycin, ionomycin]","MC1P2 (fold change in mRNA), Response to Calcineurin Activation",MCIP2 mRNA [6]; [10],0.94 fold and 1.00 fold and 1.12 fold
same,expression of MCIP2 mRNA,MCIP2 mRNA [6]; C2C12 cells,unaffected
same,"MC1P1 (fold change in mRNA), Response to Calcineurin Activation",MCIP1 mRNA [7]; [10],2.42 fold and 1.94 fold and 1.26 fold
same,up-regulation of MCIP1 mRNA in the presence of cyclohexamide,"MCIP1 mRNA [7]; C2C12 cells, cyclohexamide added 15 min prior",~10 fold
same,induction of MCIP1 mRNA,"MCIP1 mRNA [7]; C2C12 myoblasts or myotubes, cyclohexamide absent",2 fold
same,increase of MCIP1 mRNA in the absence of cyclosporin,MCIP1 mRNA [7]; compared to cells treated with the highest dose of cyclosporin,4 fold
